What follows are compounds tested against T1, Nav1.7 (or SCN9A) channel; HEK cells stably transfected with hSCN9A (Homo sapiens, UniProt Q15858) (assay: Nav1.7 block, PatchXpress 7000 automated whole-cell voltage clamp, estimated IC50 (EIC50)). Conditions: PatchXpress platform; hSCN9A HEK cells held at V1/2 of inactivation; estimated IC50.
T1 construct: expressed in transfected cells
T1 sequence (Q15858 whole entry): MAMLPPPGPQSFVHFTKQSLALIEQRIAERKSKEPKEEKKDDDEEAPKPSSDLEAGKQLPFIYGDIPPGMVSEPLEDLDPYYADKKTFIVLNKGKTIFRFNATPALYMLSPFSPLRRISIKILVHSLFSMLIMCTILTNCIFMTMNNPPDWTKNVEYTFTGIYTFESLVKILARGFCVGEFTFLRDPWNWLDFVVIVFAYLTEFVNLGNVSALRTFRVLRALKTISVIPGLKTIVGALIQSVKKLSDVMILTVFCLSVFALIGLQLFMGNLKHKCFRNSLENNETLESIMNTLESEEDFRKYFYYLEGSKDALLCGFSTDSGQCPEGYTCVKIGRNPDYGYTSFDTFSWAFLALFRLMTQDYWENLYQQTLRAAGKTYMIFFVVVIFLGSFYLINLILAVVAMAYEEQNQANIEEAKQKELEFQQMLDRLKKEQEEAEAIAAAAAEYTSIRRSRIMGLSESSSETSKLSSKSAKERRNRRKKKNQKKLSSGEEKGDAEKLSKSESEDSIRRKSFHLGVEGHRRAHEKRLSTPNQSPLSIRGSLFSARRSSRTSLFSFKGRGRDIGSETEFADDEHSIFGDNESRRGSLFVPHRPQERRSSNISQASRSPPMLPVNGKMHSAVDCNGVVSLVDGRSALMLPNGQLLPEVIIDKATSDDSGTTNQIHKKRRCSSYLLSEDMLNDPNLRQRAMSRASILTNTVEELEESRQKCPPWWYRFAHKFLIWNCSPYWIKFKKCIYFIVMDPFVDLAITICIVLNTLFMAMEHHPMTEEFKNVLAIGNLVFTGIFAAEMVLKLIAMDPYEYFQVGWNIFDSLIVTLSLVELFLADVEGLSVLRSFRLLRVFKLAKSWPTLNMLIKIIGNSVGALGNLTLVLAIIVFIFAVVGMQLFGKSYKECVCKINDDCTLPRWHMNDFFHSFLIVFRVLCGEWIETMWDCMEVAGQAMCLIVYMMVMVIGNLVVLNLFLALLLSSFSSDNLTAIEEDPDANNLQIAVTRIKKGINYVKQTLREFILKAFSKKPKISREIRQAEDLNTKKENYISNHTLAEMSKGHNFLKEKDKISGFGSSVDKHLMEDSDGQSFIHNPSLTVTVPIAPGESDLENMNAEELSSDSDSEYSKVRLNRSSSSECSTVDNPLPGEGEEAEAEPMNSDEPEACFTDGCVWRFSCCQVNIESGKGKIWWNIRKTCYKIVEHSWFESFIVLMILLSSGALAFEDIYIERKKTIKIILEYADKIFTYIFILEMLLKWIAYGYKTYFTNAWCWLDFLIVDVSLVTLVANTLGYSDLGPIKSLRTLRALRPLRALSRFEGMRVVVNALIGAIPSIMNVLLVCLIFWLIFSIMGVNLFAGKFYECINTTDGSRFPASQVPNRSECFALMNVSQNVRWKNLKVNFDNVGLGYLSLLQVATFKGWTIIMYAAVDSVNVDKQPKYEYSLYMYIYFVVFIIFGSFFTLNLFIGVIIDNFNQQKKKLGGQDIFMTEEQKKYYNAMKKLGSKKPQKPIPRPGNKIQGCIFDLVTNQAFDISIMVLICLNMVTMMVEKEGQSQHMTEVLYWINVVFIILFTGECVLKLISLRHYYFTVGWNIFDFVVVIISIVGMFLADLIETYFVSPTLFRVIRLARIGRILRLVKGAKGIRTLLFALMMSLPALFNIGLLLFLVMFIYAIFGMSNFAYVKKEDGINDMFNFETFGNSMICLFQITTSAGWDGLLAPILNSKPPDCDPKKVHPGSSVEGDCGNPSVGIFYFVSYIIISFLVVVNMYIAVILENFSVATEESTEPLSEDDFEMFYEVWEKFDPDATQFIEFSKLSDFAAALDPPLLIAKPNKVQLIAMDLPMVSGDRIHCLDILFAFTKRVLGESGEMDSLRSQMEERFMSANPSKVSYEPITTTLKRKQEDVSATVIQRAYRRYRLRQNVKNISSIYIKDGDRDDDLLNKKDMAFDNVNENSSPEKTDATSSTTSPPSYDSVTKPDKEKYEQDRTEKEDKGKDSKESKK
Assay type: cell-based
Work on Cn1nccc1-c1cc(F)ccc1Oc1ccc(S(=O)(=O)Nc2ncns2)cc1C#N [Example 1, 3-cyano-4-(4-fluoro-2-(1-methyl-1H-pyrazol-5-yl)phenoxy)-N-(1,2,4-thiadiazol-5-yl)benzenesulfonamide] yielded an IC50 of 90 nM. N#Cc1cc(S(=O)(=O)Nc2ncns2)ccc1Oc1ccccc1-c1ccc(F)cc1F [Example 56, 3-cyano-4-[(2′,4′-difluorobiphenyl-2-yl)oxy]-N-1,2,4-thiadiazol-5-ylbenzenesulfonamide] showed an IC50 of 380 nM. Cc1cccc(-c2ccccc2F)c1Oc1ccc(S(=O)(=O)Nc2ncns2)cc1C#N [Example 43, 3-cyano-4-[(2′-fluoro-3-methylbiphenyl-2-yl)oxy]-N-1,2,4-thiadiazol-5-ylbenzenesulfonamide] was tested, and the IC50 was 21700 nM. Work on N#Cc1ccc(-c2ccccc2Oc2ccc(S(=O)(=O)Nc3ncns3)cc2C#N)cc1 [Example 11, 3-cyano-4-[(4′-cyanobiphenyl-2-yl)oxy]-N-1,2,4-thiadiazol-5-ylbenzenesulfonamide] yielded an IC50 of 430 nM. Cc1cccc(-c2cccc(OC(C)C)c2)c1Oc1ccc(S(=O)(=O)Nc2ncns2)cc1C#N [Example 32, 3-cyano-4-[(3′-isopropoxy-3-methylbiphenyl-2-yl)oxy]-N-1,2,4-thiadiazol-5-ylbenzenesulfonamide] showed an IC50 of 3380 nM. With N#Cc1cc(S(=O)(=O)Nc2ncns2)ccc1Oc1cc(C(F)(F)F)nn1-c1ccc(F)c(F)c1 [Example 59, 3-cyano-4-{[1-(3,4-difluorophenyl)-3-(trifluoromethyl)-1H-pyrazol-5-yl]oxy}-N-1,2,4-thiadiazol-5-ylbenzenesulfonamide] the IC50 was 2280 nM. Compound Cc1cc(Oc2ccc(S(=O)(=O)Nc3nccs3)cc2F)n(-c2ccccc2)n1 [Example 231, 3-fluoro-4-(5-methyl-2-phenyl-2H-pyrazol-3-yloxy)-N-thiazol-2-yl-benzenesulfonamide] has an IC50 of 470 nM. In the case of N#Cc1cc(S(=O)(=O)Nc2ccon2)ccc1Oc1ccccc1-c1ccccc1 [Example 110, 4-(biphenyl-2-yloxy)-3-cyano-N-isoxazol-3-ylbenzenesulfonamide], the IC50 is reported as 4270 nM.

Same assay, conditions: estimated IC50; hSCN9A HEK cells, PatchXpress platform; Examples 283-814
COCCn1nccc1-c1cc(Cl)ccc1Oc1ccc(S(=O)(=O)Nc2ncns2)cc1C#N [Example 562, 4-{4-chloro-2-[1-(2-methoxyethyl)-1H-pyrazol-5-yl]phenoxy}-3-cyano-N-1,2,4-thiadiazol-5-ylbenzenesulfonamide] showed an IC50 of 17 nM. For Cn1nc(C(F)(F)F)cc1-c1ccc(Oc2ccc(S(=O)(=O)Nc3ncc(F)s3)cc2C#N)c(F)c1 [Example 535, 3-cyano-4-{2-fluoro-4-[1-methyl-3-(trifluoromethyl)-1H-pyrazol-5-yl]phenoxy}-N-(5-fluoro-1,3-thiazol-2-yl)benzenesulfonamide], the IC50 was 170 nM. For Cn1nccc1-c1cc(Cl)ccc1Oc1ccc(S(=O)(=O)Nc2ccc(F)cn2)cc1C#N [Example 608, 4-[4-chloro-2-(1-methyl-1H-pyrazol-5-yl)phenoxy]-3-cyano-N-(5-fluoropyridin-2-yl)benzenesulfonamide], the IC50 was 400 nM. Compound CN1CC(n2nccc2-c2cc(Cl)ccc2Oc2cc(F)c(S(=O)(=O)Nc3cscn3)cc2Cl)C1 [Example 730, 5-chloro-4-{4-chloro-2-[1-(1-methylazetidin-3-yl)-1H-pyrazol-5-yl]phenoxy}-2-fluoro-N-1,3-thiazol-4-ylbenzenesulfonamide] has an IC50 of 9.9 nM. In the case of Cc1scnc1NS(=O)(=O)c1ccc(Oc2ccccc2-c2ccccc2)c(C#N)c1 [Example 600, 4-(biphenyl-2-yloxy)-3-cyano-N-(5-methyl-1,3-thiazol-4-yl)benzenesulfonamide], the IC50 is reported as 15000 nM. For CN(C)Cc1cnn(-c2ccc(Oc3ccc(S(=O)(=O)Nc4nccs4)cc3C#N)cc2)c1 [Example 377, 3-cyano-4-(4-{4-[(dimethylamino)methyl]-1H-pyrazol-1-yl}phenoxy)-N-1,3-thiazol-2-ylbenzenesulfonamide], the IC50 was >1000 nM. CCn1nc(C(F)(F)F)cc1-c1cccc(Oc2ccc(S(=O)(=O)Nc3nc(C)ns3)cc2C#N)c1 [Example 290, 3-cyano-4-{3-[1-ethyl-3-(trifluoromethyl)-1H-pyrazol-5-yl]phenoxy}-N-(3-methyl-1,2,4-thiadiazol-5-yl)benzenesulfonamide] showed an IC50 of 2000 nM. Compound N#Cc1cc(S(=O)(=O)Nc2nccs2)ccc1Oc1ccc(Cl)cc1CN1CCOCC1 [Example 493, 4-[4-chloro-2-(morpholin-4-ylmethyl)phenoxy]-3-cyano-N-1,3-thiazol-2-ylbenzenesulfonamide] has an IC50 of 580 nM. Work on CN1CCC(c2cccc(Oc3ccc(S(=O)(=O)Nc4ccc(F)cn4)cc3C#N)c2)CC1 [Example 573, 3-cyano-N-(5-fluoropyridin-2-yl)-4-[3-(1-methylpiperidin-4-yl)phenoxy]benzenesulfonamide] yielded an IC50 of 7300 nM. Compound O=S(=O)(Nc1cscn1)c1ccc(Oc2ccc(Cl)cc2-c2cn[nH]c2)cc1 [Example 672, 4-[4-chloro-2-(1H-pyrazol-4-yl)phenoxy]-N-1,3-thiazol-4-ylbenzenesulfonamide] has an IC50 of 2500 nM. In the case of COc1cccc(-c2ccc(Oc3ccc(S(=O)(=O)Nc4nccs4)cc3C#N)cc2)n1 [Example 451, 3-cyano-4-[4-(6-methoxypyridin-2-yl)phenoxy]-N-1,3-thiazol-2-ylbenzenesulfonamide], the IC50 is reported as >1000 nM. O=S(=O)(Nc1ccc(F)cn1)c1cc(Cl)c(Oc2ccc(C(F)(F)F)cc2C2CCNCC2)cc1F [Example 800, 5-Chloro-2-fluoro-N-(5-fluoropyridin-2-yl)-4-[2-piperidin-4-yl-4-(trifluoromethyl)phenoxy]benzenesulfonamide] was tested, and the IC50 was 52 nM. Compound N#Cc1cc(S(=O)(=O)Nc2ccc(C(F)(F)F)cn2)ccc1Oc1ccccc1-c1ccccc1 [Example 770, 4-(biphenyl-2-yloxy)-3-cyano-N-[5-(trifluoromethyl)pyridin-2-yl]benzenesulfonamide] has an IC50 of 24000 nM. With CCn1nc(C(F)(F)F)cc1-c1ccc(Oc2ccc(S(=O)(=O)Nc3ccon3)cc2C#N)cc1 [Example 337, 3-cyano-4-{4-[1-ethyl-3-(trifluoromethyl)-1H-pyrazol-5-yl]phenoxy}-N-isoxazol-3-ylbenzenesulfonamide] the IC50 was 2500 nM. CCn1nc(C(F)(F)F)cc1-c1ccc(Oc2ccc(S(=O)(=O)Nc3cc(C#N)ccn3)cc2C#N)cc1 [Example 342, 3-cyano-N-(4-cyanopyridin-2-yl)-4-{4-[1-ethyl-3-(trifluoromethyl)-1H-pyrazol-5-yl]phenoxy}benzenesulfonamide] was tested, and the IC50 was 18000 nM. N#Cc1cc(S(=O)(=O)Nc2ccc(F)cn2)ccc1Oc1ccc(-n2ccnc2)cc1 [Example 569, 3-cyano-N-(5-fluoropyridin-2-yl)-4-[4-(1H-imidazol-1-yl)phenoxy]benzenesulfonamide] was tested, and the IC50 was >3000 nM. With N#Cc1cc(S(=O)(=O)Nc2cscn2)ccc1Oc1ccc(Cl)cc1-c1ccn(C(F)(F)F)n1 [Example 398, 4-{4-chloro-2-[1-(trifluoromethyl)-1H-pyrazol-3-yl]phenoxy}-3-cyano-N-1,3-thiazol-4-ylbenzenesulfonamide] the IC50 was >1000 nM. Compound CC(C)Cc1ccc(Oc2ccc(S(=O)(=O)Nc3nccs3)cc2F)c(-c2ccnn2C)c1 [Example 723, 3-Fluoro-4-[4-isobutyl-2-(1-methyl-1H-pyrazol-5-yl)phenoxy]-N-1,3-thiazol-2-ylbenzenesulfonamide] has an IC50 of 64 nM. In the case of CCn1nc(C(F)(F)F)cc1-c1cccc(Oc2ccc(S(=O)(=O)Nc3ncc(F)s3)cc2C#N)c1 [Example 479, 3-cyano-4-{3-[1-ethyl-3-(trifluoromethyl)-1H-pyrazol-5-yl]phenoxy}-N-(5-fluoro-1,3-thiazol-2-yl)benzenesulfonamide], the IC50 is reported as 230 nM. With Cc1[nH]ncc1-c1cc(Cl)ccc1Oc1cc(F)c(S(=O)(=O)Nc2ncns2)cc1F [Example 635, 4-[4-chloro-2-(5-methyl-1H-pyrazol-4-yl)phenoxy]-2,5-difluoro-N-1,2,4-thiadiazol-5-ylbenzenesulfonamide] the IC50 was 6.3 nM. Compound Cn1nccc1-c1cc(Cl)ccc1Oc1ccc(S(=O)(=O)Nc2ncc(Cl)s2)cc1C#N [Example 597, 4-[4-Chloro-2-(1-methyl-1H-pyrazol-5-yl)phenoxy]-N-(5-chloro-1,3-thiazol-2-yl)-3-cyanobenzenesulfonamide] has an IC50 of 20 nM. With Cn1nccc1-c1ccc(Oc2ccc(S(=O)(=O)Nc3nccs3)cc2C#N)cc1Cl [Example 443, 4-[3-chloro-4-(1-methyl-1H-pyrazol-5-yl)phenoxy]-3-cyano-N-1,3-thiazol-2-ylbenzenesulfonamide] the IC50 was 1800 nM.

Same assay, conditions: estimated IC50; hSCN9A HEK cells, PatchXpress platform; Examples 815-1040
Nc1cc(-c2cc(C(F)(F)F)ccc2Oc2ccc(S(=O)(=O)Nc3ccncn3)cc2Cl)ccn1 [Example 1013, 4-[2-(2-aminopyridin-4-yl)-4-(trifluoromethyl)phenoxy]-3-chloro-N-pyrimidin-4-ylbenzenesulfonamide] showed an IC50 of 4.8 nM. In the case of CN1CC(n2nccc2-c2cc(Cl)ccc2Oc2ncc(S(=O)(=O)Nc3ncns3)cc2Cl)C1 [Example 968, 5-chloro-6-{4-chloro-2-[1-(1-methylazetidin-3-yl)-1H-pyrazol-5-yl]phenoxy}-N-1,2,4-thiadiazol-5-ylpyridine-3-sulfonamide], the IC50 is reported as 2000 nM. O=S(=O)(Nc1ncns1)c1cc(Cl)c(Oc2ccc(OC(F)(F)F)cc2-c2ccnnc2)cc1F [Example 909, 5-chloro-2-fluoro-4-[2-pyridazin-4-yl-4-(trifluoromethoxy)phenoxy]-N-1,2,4-thiadiazol-5-ylbenzenesulfonamide] showed an IC50 of 2.1 nM. Nc1cc(-c2cc(Cl)ccc2Oc2cc(F)c(S(=O)(=O)Nc3nncs3)cc2F)ccn1 [Example 820, 4-[2-(2-aminopyridin-4-yl)-4-chlorophenoxy]-2,5-difluoro-N-1,3,4-thiadiazol-2-ylbenzenesulfonamide] showed an IC50 of 230 nM. CCOc1n[nH]cc1-c1cc(Cl)ccc1Oc1cc(F)c(S(=O)(=O)Nc2cscn2)cc1F [Example 984, 4-[4-chloro-2-(3-ethoxy-1H-pyrazol-4-yl)phenoxy]-2,5-difluoro-N-1,3-thiazol-4-ylbenzenesulfonamide] showed an IC50 of 560 nM.

Source: patent publication US8541588B2, “Sulfonamide derivatives” (Pfizer Limited, priority 2009, dated 2013)
